Like-named read-outs stand apart in the source and are kept apart here.

Assay [1] concerns human lung adenocarcinoma A549. Put plainly: Trypan blue exclusion cytotoxicity assay.
In assay [2] the test system is chronic myeloid leukemia K-562. Nature of the assay: Trypan blue exclusion cytotoxicity assay.
Setting [3] is: Homo sapiens, A549, 24 h, read-out: A549 (IC50 μM), trypan blue exclusion, mean ± SD.
Setting [4] is: read-out: A549 (IC50 μM), trypan blue exclusion, 24 h, mean ± SD.
Where [5] appears, read: Homo sapiens, K562, 24 h, read-out: K-562 (IC50 μM), trypan blue exclusion, mean ± SD.
Setting [6] is: read-out: K-562 (IC50 μM), trypan blue exclusion, 24 h, mean ± SD.

The IC50 is the concentration needed to halve the response being measured. Regarding `Cc1ccc(-c2cc(C(=O)NN=C(/C=C\c3ccccc3)c3ccc(N)cc3)c3ccccc3n2)cc1` [Compound 9d, N’-((Z)-1-(4-Aminophenyl)-3-phenylallylidene)-2-(4-methylphenyl)quinoline-4-carbohydrazide], the values for the IC50 in assay [1] (setting [3]), in assay [1] (setting [4]) and in assay [2] (setting [5]) were 11 µM, 11.2 ± 0.52 µM and 6.98 ± 0.92 µM, respectively.
On to `Nc1ccc(C(/C=C\c2ccccc2)=NNC(=O)c2cc(-c3ccc(Cl)cc3)nc3ccccc23)cc1` [Compound 9b, N’-((Z)-1-(4-Aminophenyl)-3-phenylallylidene)-2-(4-chlorophenyl)quinoline-4-carbohydrazide], for which the half-inhibitory concentration (IC50) came to 17.6 ± 2.5 µM in assay [1] (setting [3]) and 8.96 ± 1.06 µM in assay [2] (setting [5]).
As for `COc1ccc(/C=C\C(=NNC(=O)c2cc(-c3ccc(OC)cc3)nc3ccc(OC)cc23)c2ccc(N)cc2)cc1` [Compound 9r, N’-((Z)-1-(4-Aminophenyl)-3-(4-methoxyphenyl)allylidene)-2-(4-methoxyphenyl)-6-methoxyquinoline-4-carbohydrazide], the IC50 in assay [1] (setting [3]) came out at 67.4 ± 2.29 µM; in assay [2] (setting [5]), 4.45 ± 0.64 µM.
Take `N.N.[Cl][Pt][Cl]` [Cisplatin, reference compound]: the IC50 in assay [1] (setting [4]) amounted to 15.3 ± 1.87 µM; in assay [2] (setting [6]), 2.71 ± 0.34 µM.
Regarding `COc1ccc2nc(-c3ccc(Cl)cc3)cc(C(=O)NN=C(/C=C\c3ccc(OC)c(OC)c3)c3ccc(N)cc3)c2c1` [Compound 9s, N’-((Z)-1-(4-Aminophenyl)-3-(3,4-dimethoxyphenyl)allylidene)-2-(4-chlorophenyl)-6-methoxyquinoline-4-carbohydrazide], the IC50 in assay [1] (setting [3]) and in assay [2] (setting [5]) was > 100 µM in each case.
For `COc1ccc(/C=C\C(=NNC(=O)c2cc(-c3ccc(Cl)cc3)nc3ccc(OC)cc23)c2ccc(N)cc2)cc1` [Compound 9q, N’-((Z)-1-(4-Aminophenyl)-3-(4-methoxyphenyl)allylidene)-2-(4-chlorophenyl)-6-methoxyquinoline-4-carbohydrazide], the concentration for half-maximal inhibition (IC50) came out at 97.2 ± 2.36 µM in assay [1] (setting [3]) and 68.1 ± 2.87 µM in assay [2] (setting [5]).
With `Nc1ccc(C(/C=C\c2ccccc2)=NNC(=O)c2cc(-c3ccccc3)nc3ccccc23)cc1` [Compound 9a, N’-((Z)-1-(4-Aminophenyl)-3-phenylallylidene)-2-phenylquinoline-4-carbohydrazide], the IC50 was > 100 µM in assay [1] (setting [3]), 83 µM in assay [2] (setting [5]) and 82.8 ± 3.24 µM in assay [2] (setting [6]).
Consider `COc1ccc(/C=C\C(=NNC(=O)c2cc(-c3ccccc3)nc3ccccc23)c2ccc(N)cc2)cc1` [Compound 9m, N’-((Z)-1-(4-Aminophenyl)-3-(4-methoxyphenyl)allylidene)-2-phenylquinoline-4-carbohydrazide], for which the figures for the IC50 in assay [1] (setting [3]) and in assay [2] (setting [5]) were > 100 µM and 60.7 ± 2.67 µM, respectively.
Take `COc1ccc(/C=C\C(=NNC(=O)c2cc(-c3ccc(C)cc3)nc3ccccc23)c2ccc(N)cc2)cc1` [Compound 9p, N’-((Z)-1-(4-Aminophenyl)-3-(4-methoxyphenyl)allylidene)-2-(4-methylphenyl)quinoline-4-carbohydrazide]: the half-maximal inhibitory concentration (IC50) in assay [1] (setting [3]) is 33.9 ± 2.15 µM; in assay [2] (setting [5]) it was 18 ± 0.97 µM.
For the molecule `COc1ccc(-c2cc(C(=O)NN=C(/C=C\c3ccccc3)c3ccc(N)cc3)c3ccccc3n2)cc1` [Compound 9c, N’-((Z)-1-(4-Aminophenyl)-3-phenylallylidene)-2-(4-methoxyphenyl)quinoline-4-carbohydrazide], the 50% inhibitory concentration (IC50) in assay [1] (setting [3]) turned out to be 16.4 ± 1.3 µM; in assay [2] (setting [5]), 5.37 ± 0.31 µM.
The matching figures for `COc1ccc2nc(-c3ccc(Cl)cc3)cc(C(=O)NN=C(/C=C\c3ccc(Cl)cc3)c3ccc(N)cc3)c2c1` [Compound 9k, N’-((Z)-1-(4-Aminophenyl)-3-(4-chlorophenyl)allylidene)-2-(4-chlorophenyl)-6-methoxyquinoline-4-carbohydrazide]: > 100 µM and 15.2 ± 1.49 µM.
Consider `Nc1ccc(C(/C=C\c2ccc(Cl)cc2)=NNC(=O)c2cc(-c3ccc(Cl)cc3)nc3ccccc23)cc1` [Compound 9h, N’-((Z)-1-(4-Aminophenyl)-3-(4-chlorophenyl)allylidene)-2-(4-chlorophenyl)quinoline-4-carbohydrazide], for which the half-inhibitory concentration (IC50) in assay [1] (setting [3]) amounted to 9 µM; in assay [1] (setting [4]), 9.46 ± 0.63 µM; in assay [2] (setting [5]) it was 4.28 ± 0.34 µM.
Regarding `COc1ccc(-c2cc(C(=O)NN=C(/C=C\c3ccc(OC)c(OC)c3)c3ccc(N)cc3)c3cc(OC)ccc3n2)cc1` [Compound 9t, N’-((Z)-1-(4-Aminophenyl)-3-(3,4-dimethoxyphenyl)allylidene)-2-(4-methoxyphenyl)-6-methoxyquinoline-4-carbohydrazide], the IC50 in assay [1] (setting [3]) was determined as 31.6 ± 2.02 µM; in assay [2] (setting [5]) it was 23.1 ± 2.15 µM.
Take `O=c1cc(N2CCOCC2)oc2c(-c3ccccc3)cccc12` [LY294002, reference compound]: the concentration for half-maximal inhibition (IC50) stood at 3.52 µM in assay [1] (setting [3]) and 2.68 µM in assay [2] (setting [5]).
As to `COc1ccc(/C=C\C(=NNC(=O)c2cc(-c3ccc(OC)cc3)nc3ccccc23)c2ccc(N)cc2)cc1` [Compound 9o, N’-((Z)-1-(4-Aminophenyl)-3-(4-methoxyphenyl)allylidene)-2-(4-methoxyphenyl)quinoline-4-carbohydrazide], the 50% inhibitory concentration (IC50) in assay [1] (setting [3]) came out at 46.5 ± 2.21 µM; in assay [2] (setting [5]), 10.9 ± 0.74 µM.
Consider `COc1ccc(/C=C\C(=NNC(=O)c2cc(-c3ccc(Cl)cc3)nc3ccccc23)c2ccc(N)cc2)cc1` [Compound 9n, N’-((Z)-1-(4-Aminophenyl)-3-(4-methoxyphenyl)allylidene)-2-(4-chlorophenyl)quinoline-4-carbohydrazide], for which the values for the 50% inhibitory concentration (IC50) in assay [1] (setting [3]) and in assay [2] (setting [5]) were 48.3 ± 1.69 µM and 14.4 ± 0.94 µM, respectively.
As to `COc1ccc2nc(-c3ccc(Cl)cc3)cc(C(=O)NN=C(/C=C\c3ccccc3)c3ccc(N)cc3)c2c1` [Compound 9e, N’-((Z)-1-(4-Aminophenyl)-3-phenylallylidene)-2-(4-chlorophenyl)-6-methoxyquinoline-4-carbohydrazide], the half-maximal inhibitory concentration (IC50) in assay [1] (setting [3]) turned out to be 19.2 ± 1.85 µM; in assay [2] (setting [5]), 5.09 ± 0.19 µM.
As for `COc1ccc(-c2cc(C(=O)NN=C(/C=C\c3ccccc3)c3ccc(N)cc3)c3cc(OC)ccc3n2)cc1` [Compound 9f, N’-((Z)-1-(4-Aminophenyl)-3-phenylallylidene)-2-(4-methoxyphenyl)-6-methoxyquinoline-4-carbohydrazide], the IC50 in assay [1] (setting [3]) was found to be 91 µM; in assay [1] (setting [4]), 91.4 ± 4.54 µM; in assay [2] (setting [5]), 81 µM; in assay [2] (setting [6]), 81.2 ± 3.14 µM.
`Nc1ccc(C(/C=C\c2ccc(Cl)cc2)=NNC(=O)c2cc(-c3ccccc3)nc3ccccc23)cc1` [Compound 9g, N’-((Z)-1-(4-Aminophenyl)-3-(4-chlorophenyl)allylidene)-2-phenylquinoline-4-carbohydrazide]: the half-maximal inhibitory concentration (IC50) in assay [1] (setting [3]) was 18.5 µM; in assay [1] (setting [4]), 18.5 ± 0.52 µM; in assay [2] (setting [5]) it was 15.2 µM; in assay [2] (setting [6]), 15.2 ± 2.15 µM.
Take `COc1ccc(-c2cc(C(=O)NN=C(/C=C\c3ccc(Cl)cc3)c3ccc(N)cc3)c3cc(OC)ccc3n2)cc1` [Compound 9l, N’-((Z)-1-(4-Aminophenyl)-3-(4-chlorophenyl)allylidene)-2-(4-methoxyphenyl)-6-methoxyquinoline-4-carbohydrazide]: the concentration for half-maximal inhibition (IC50) in assay [1] (setting [3]) was > 100 µM; in assay [2] (setting [5]), 5.17 ± 0.18 µM.
